Assay [1] deals with HepG2. Kind of assay: Cytotoxicity against human HepG2 cells after 96 hrs by MTT assay. The format is functional, cell-based. Particulars: HepG2, 96 h. For orientation: Formazan colour is commonly taken as a measure of viable cells.
A further assay has as its system HCT-116. In words: Cytotoxicity against human HCT116 cells after 96 hrs by MTT assay. Particulars: HCT-116, 96 h. Format: functional, cell-based.
The next assay relates to DU-145. In words: Growth inhibition of human DU145 cells by microtiter plate assay. The format is functional.
The test system of another assay is MCF7. Kind of assay: Growth inhibition of human MCF7 cells by microtiter plate assay. Format: functional.
In another assay the test system is MDA-MB-231. Kind of assay: Growth inhibition of human MDA-MB-231 cells by microtiter plate assay. Format: functional.
For assay [2], the system named is HepG2. Kind of assay: Cytotoxicity against human HepG2 cells.
The next assay relates to PC-3. Kind of assay: cells. Particulars: Homo sapiens, PC-3, 48 h.
The next assay relates to HT-29. Kind of assay: cells. Particulars: Homo sapiens, HT-29, 48 h.

pIC50: −log10 of the molar value. Converted amounts (≈) assume the structure as drawn.

Description for HT-29: Antiproliferative activity against human HT-29 cells after 48 hrs by MTT assay

By pIC50 is commonly meant the IC50 on a negative log10 scale, so that one unit is a factor of ten. Higher therefore signals a low IC50. Regarding `CC[C@H](CC[C@@H](C)[C@H]1CC[C@H]2[C@H]3[C@H](CC[C@]12C)[C@@]1(C)CCCCC1=Cc1nnnn13)C(C)C`, the pIC50 in the assay on HepG2 [1] is 5.32; in the assay on HCT-116, 5.34.

The GI50 is the concentration that inhibits growth by half. Read a low GI50 as more potent growth inhibition. For `CCc1cc2c(cc1OS(N)(=O)=O)CC[C@@H]1[C@@H]2CC[C@]2(C)[C@@H](Cc3nnn(C)n3)CC[C@@H]12`, the GI50 in the assay with DU-145, in the assay with MCF7 and with MDA-MB-231 was 0.8 to 47 µM in each case.

The IC50 is the concentration at which inhibition is half-maximal. A high value points to weaker potency. As for `COc1cccc2c1C(=O)c1c(O)c3c(c(O)c1C2=O)C[C@@](O)(C(=O)CO)C[C@@H]3O[C@H]1C[C@H](N)[C@H](O)[C@H](C)O1` [DOXORUBICIN], the pIC50 is 5.55 in the assay on HepG2 [1], 5.41 in the assay on PC-3, 5.65 in the assay with HT-29 and 5.59 in the assay on HCT-116. Moreover, in the assay on HepG2 [2], it took 4 µg/mL (≈ 7.36 µM) to reach half-maximal inhibition (IC50).

These data come from ChEMBL document CHEMBL4364264, “Tetrazole hybrids with potential anticancer activity” (Eur J Med Chem, 2019).
